In PubChem BioAssay AID179 (DTP/NCI, 2004) one finds EC50, IC50 and outcome data, which are given here for 72 compounds.

Several values for one entry are separate records, joined by “and”; a condition that tells them apart may be missing. Identical values can stand only once. Activity calls are given as the source filed them.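 Rule for the calls: active = compounds giving half or more protection of infected cells from virus-caused growth loss, again on retest; inactive = the rest.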 Bounds are passed on as bounds.

The test system of the experiment is CEM cells HIV-1 protection, formazan growth assay. Description: NCI AIDS Antiviral Assay. The conditions noted are these: for IC50: measured here: growth of uninfected CEM cells. Put shortly: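 Screen of anti-HIV-1 activity in human CEM cells using a formazan-based growth measurement at five drug concentrations. Hits with 50% or greater protection were repeated, and confirmation required reproducible complete protection.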

One may read the EC50 as the midpoint of the concentration-response curve. One may read the IC50 as the concentration that inhibits the measured activity by half. Low readings indicate inhibition by little substance, high ones a need for much substance. Consider `O=C(Nc1ccc(Cl)c(Cl)c1)OCn1ncc2ccc([N+](=O)[O-])cc21`, for which the EC50 was more than 200 µM and the IC50 turned out to be 132 µM. Consider `COC(=O)C1=C(C(=O)OC)C23CC4CCC2(C(=O)C1O3)C4(C)C` (stereo unspecified), for which the EC50 was more than 251 µM and the IC50 stood at 16.6 µM. For `Cc1cc(C(O)CCCc2ccccc2)cc(C)c1O` (stereo unspecified) the same measures were more than 251 µM and 83.2 µM. For `CC1(C)N=C(/C(C#N)=[N+](/[O-])C(=O)c2ccccc2)C(C)(C)N1O` the same measures were more than 200 µM and more than 200 µM. For `O=C1OCC(Cc2ccc3c(c2)OCO3)[C@H]1Cc1ccccc1` (stereo partly specified) the same measures were more than 200 µM and 186 µM. Turning to `CN(C)c1ccc2c(c1)-c1cc(N(C)C)ccc1C2=CC=C1C(=O)c2ccccc2C1=O`, the EC50 is more than 17 µM and the IC50 is more than 17 µM. For `CC(C)CN1CC(=O)N2Cc3ccccc3CN2C(=O)C1`, the EC50 is more than 200 µM and the IC50 was more than 200 µM. With `NC(CSS(=O)(=O)CC(N)C(=O)O)C(=O)O` (stereo unspecified), the outcome was inactive and the IC50 is 63.1 µM. As for `CCOC(=O)/C(=C\c1cccc(C#N)c1)[Se]c1ccccc1`, the EC50 was more than 52.5 µM and the IC50 was more than 52.5 µM. As for `CCCC/C=C/C1Cc2ccccc2CN1S(=O)(=O)c1ccc(C)cc1` (stereo unspecified), the EC50 is more than 25.1 µM and the IC50 amounted to 5.25 µM. In the case of `CN1CCC23c4c5cc(-c6cc7c8c(c6O)OC6C(O)C=CC9C(C7)N(C)CCC896)c(O)c4OC2C(O)C=CC3C1C5` (stereo unspecified), the result was inactive.

As to `COC1=NS(=O)(=O)C2(O1)c1ccccc1-c1ccccc12`, the EC50 is more than 117 µM and the IC50 was 89.1 µM.

With `CC(=O)NC(CCC(=O)c1ccc(Oc2ccccc2)cc1)(C(=O)O)C(=O)O`, the EC50 is more than 200 µM and the IC50 is more than 200 µM.

As to `CC(=O)Nc1ccccc1S(=O)(=O)c1c(-c2c(C)c(Cl)c(C)c(Cl)c2C)noc1C`, the EC50 was more than 200 µM and the IC50 was 87.1 µM. With `COc1ccc(C(C(N)=O)N2CCCC2)cc1` (stereo unspecified), the EC50 is more than 200 µM and the IC50 was more than 200 µM.

On to `O=C1/C=C(/c2ccc(O)cc2)[C@@H](O)Cc2ccc(O)cc2O1`, for which the EC50 is more than 200 µM and the IC50 was more than 200 µM. For `CCCCCCCCCCCCCCCC(=O)Nc1ccn(C2CCC(COP(=O)(O)OCC(COP(=O)(O)OCC3OC(n4cc(C)c(=O)[nH]c4=O)CC3N=[N+]=[N-])OC(=O)CCCCCCCCCCCCCCC)O2)c(=O)n1` (stereo unspecified), the EC50 is 0.0182 µM and the IC50 turned out to be 50.1 µM.

In the case of `COc1ccc(-c2cc3c(nn2)-c2ccccc2C3=O)cc1`, the EC50 is more than 100 µM and the half-inhibitory concentration (IC50) is more than 100 µM. For the compound `CC(=O)O[C@H]1CCC2[C@@H]3CC[C@]4(C)CC(=O)C=C[C@]4(C)C3CC[C@@]21C` (stereo partly specified), the result was inactive. Regarding `CCOC(=O)CC1(C(=O)OCC)c2[nH]c3ccccc3c2CCN1Cc1ccccc1` (stereo unspecified), the EC50 was more than 69.2 µM and the IC50 was 17.4 µM. In the same order, the values of `C=CCNc1nc2c(N)ncnc2s1` are more than 200 µM and more than 200 µM.

Regarding `CN1CCC2(CC1)SC[C@H]1C(=O)N(c3ccc(Cl)cc3)C(=O)N12`, the EC50 was more than 200 µM and the IC50 was 120 µM.

As to `COc1cccc(C=C2N=C(C)N(n3c(-c4ccccc4)nc4ccccc4c3=O)C2=O)c1`, the EC50 is more than 200 µM and the IC50 came out at 72.4 µM. For `O=C1Oc2ccccc2[C@@H]2[C@H]1[C@@H]1C(=O)Oc3ccccc3[C@@H]12`, the EC50 was more than 46.8 µM and the IC50 was more than 46.8 µM. Turning to `O/N=C1\CCc2cc3c(cc21)CCC3`, the EC50 is more than 200 µM and the IC50 is 155 µM. For `O=C(Cc1cc[n+]([O-])cc1)C(=O)Nc1cc(Cl)c(Cl)cc1Cl` the same measures were more than 692 µM and 631 µM.

In the case of `O=C(c1ccccc1)N1CCN(C(=S)N(C(=O)c2ccccc2)c2ccccc2)C1=S`, the EC50 was more than 200 µM and the IC50 was 3.72 µM. In the same order, the values of `CCCCNc1ccc(/C=C2\C=Cc3ccccc32)cc1` are more than 10 µM and more than 10 µM.

With `CC(=O)NNc1nc(C)c(C(=O)NNC(=O)C(=O)Nc2ccc(Cl)cc2)s1`, the result was inactive. On to `O=C1NC2OC(C(O)CO)C(O)C2O1` (stereo unspecified), for which the EC50 is more than 200 µM and the IC50 was more than 200 µM.

Regarding `COc1cccc(/C=C/C(=O)C(C)(C)C)c1`, the EC50 is more than 24 µM and the IC50 is more than 24 µM. For `CCCOc1cc2c(c3oc(=O)cc(CCC)c13)C(=O)[C@H](C)[C@@H](C)O2`, the EC50 was more than 200 µM and the IC50 was 5.5 µM. For `C1CCN2CC34CC(CC5CCCN(C6CCCC3N6)C54)C2C1` (stereo unspecified) the same measures were more than 309 µM and more than 309 µM.

In the case of `Cc1ccc(-c2c(C#N)c(-c3ccccc3)c(C#N)c(=O)n2NS(=O)(=O)c2ccccc2)cc1`, the EC50 is more than 200 µM and the IC50 amounted to 69.2 µM. For `COc1cc(/C=C2/C(=O)N(C(=O)c3ccccc3O)N=C2C)cc(OC)c1OC` the same measures were more than 47.9 µM and 0.24 µM. In the case of `O=C(N/C(=C/c1ccc(Cl)cc1)c1nc2ccccc2c(=O)n1Nc1ccc([N+](=O)[O-])cc1[N+](=O)[O-])c1ccccc1`, the EC50 is more than 200 µM and the IC50 was found to be 178 µM.

Consider `ClCCCCCc1c2nc(c(CCCCCCl)c3ccc([nH]3)c(CCCCCCl)c3ccc([nH]3)c(CCCCCCl)c3nc1C=C3)C=C2`, for which the EC50 was more than 200 µM and the IC50 is more than 200 µM. For `O=C1/C(=C/c2ccc(O)c(CN3CCCCC3)c2)CCC/C1=C\c1ccc(O)c(CN2CCCCC2)c1`, the outcome was inactive. For `c1ccc(-c2cc(-c3cc(-c4ccccc4)n[nH]3)[nH]n2)cc1`, the EC50 was more than 200 µM and the IC50 is more than 200 µM. `COc1ccc(C2SCc3nc4ccccc4n32)cc1` (stereo unspecified): the result was inactive. As to `Cc1cc(C)c2c(=N)c3ccccc3n(CCCCCCO)c2n1`, the EC50 was more than 200 µM and the IC50 worked out at 1.38 µM. In the same order, the values of `O=c1[nH][nH]c(=O)n1CCCCCCn1c(=O)[nH][nH]c1=O` are more than 200 µM and more than 200 µM.

Consider `CSC1(C)CC2C(CC1N1CCOCC1)C2(C)C` (stereo unspecified), for which the EC50 is more than 95.5 µM and the IC50 was more than 95.5 µM. For `O=[N+]([O-])c1ccc(-c2noc(-c3ccc(Cl)cc3)c2C2=NCCN2)cc1`, the EC50 is more than 14.1 µM and the IC50 is more than 14.1 µM.

On to `O=S(=O)(Cc1ccccc1)CS(=O)(=O)Cc1ccccc1`, for which the EC50 was more than 77.6 µM and the IC50 was more than 77.6 µM. On to `CN(C)C1COC2Cc3ccccc3C1O2` (stereo unspecified), for which the EC50 was more than 200 µM and the IC50 was more than 200 µM.

`C[N+]1=C(c2cccnc2/C=N/O)OCC1(C)C`: the EC50 was more than 692 µM and the IC50 worked out at 417 µM.

For the compound `Cc1cn(C2CC(N(O)Cc3ccccc3)C(CO[Si](C)(C)C(C)(C)C)O2)c(=O)[nH]c1=O` (stereo unspecified), the EC50 is more than 200 µM; the IC50 was 12 µM and 36.3 µM. For the compound `Nc1[nH]c(=S)nc2nc3c4ccccc4c4ccccc4c3nc12`, the EC50 is more than 200 µM and the IC50 is more than 200 µM. Turning to `COc1ccc2nc3cccc([N+](=O)[O-])c3c(NC(C)CN(C)C)c2c1` (stereo unspecified), the EC50 is more than 20 µM and the IC50 stood at 2.29 µM. `Nc1cccc2cn[nH]c12`: the EC50 is more than 1480 µM and the IC50 amounted to 229 µM. Turning to `COc1ccccc1/C=C1\N=C(C)OC1=O`, the result was inactive.

For `O=C(OCc1ccccc1C1CSCSC1)c1cc(C(=O)OCc2ccccc2C2CSCSC2)c(C(=O)OCc2ccccc2C2CSCSC2)cc1C(=O)OCc1ccccc1C1CSCSC1`, the EC50 is more than 1.82 µM and the IC50 is more than 1.82 µM.

Take `CSc1nc(NC2CCCC2)c2cc[nH]c2n1`: the EC50 is more than 200 µM and the IC50 came out at 43.7 µM. In the same order, the values of `CC(=O)NNc1nc(C)c(C(/C=C/c2ccc(Cl)cc2)=N/NC(=S)NN)s1` are more than 44.7 µM and more than 44.7 µM. For `COc1ccc2nc(/C(N)=C\C#N)ccc2c1` the same measures were more than 200 µM and 41.7 µM. Turning to `Cc1nc(CC2C(CO[Si](C)(C)C(C)(C)C)OC(n3ccc(=O)[nH]c3=O)C2O[Si](C)(C)C(C)(C)C)no1` (stereo unspecified), the EC50 was more than 200 µM and the IC50 worked out at 6.61 µM.

For the compound `COc1cc(/C=C2\CC(C)C/C(=C\c3ccc(O)c(OC)c3)C2=O)ccc1O` (stereo unspecified), the EC50 was more than 200 µM and the IC50 came to 3.39 µM. For the compound `CC(=O)OCCOCN1C(=O)CC(=O)NC1=O`, the EC50 was more than 200 µM and the IC50 was more than 200 µM. Consider `O=Nc1sc(=N\O)/c(=N/O)sc1NO`, for which the EC50 was more than 200 µM and the 50% inhibitory concentration (IC50) came to 32.4 µM. For `CC(C)(C)c1cc(C(=O)/C=C/c2ccc(C(=O)O)cc2)cc(C(C)(C)C)c1` the same measures were more than 15.1 µM and 8.32 µM. For `O=c1ccn(C2OC(CO)C(O)C2[Se]c2ccccc2)c(=O)[nH]1` (stereo unspecified) the same measures were more than 200 µM and more than 200 µM. In the same order, the values of `CCN1CCCn2c(=S)[nH]c3cc(Br)cc1c32` are 57.5 µM and 97.7 µM. With `CCOC(=O)C(NC(=O)Nc1ccc(Cl)c(Cl)c1)C(F)(F)F` (stereo unspecified), the EC50 is more than 200 µM and the IC50 amounted to 141 µM.

As for `CCOC(=O)Cc1ccc2c(c1O)C(=O)c1c(ccc(CC(=O)OCC)c1O)C2=O`, the result was inactive.

On to `COc1ccc(C[C@@H](CO)NC2=C(C#N)CCC2)cc1`, for which the EC50 was more than 200 µM and the IC50 worked out at 64.6 µM. For `C/C(=N\NC(=S)N1CC2CCC(CC2)C1)c1nccs1` the same measures were more than 115 µM and 0.363 µM. On to `CCCC(C(=O)OC)C1N=C(NC#N)N(Cc2ccccc2)C1=O` (stereo unspecified), for which the EC50 was more than 110 µM and the IC50 is more than 110 µM. Regarding `OCC1C2CCC3(OCCO3)C12` (stereo unspecified), the EC50 was more than 200 µM and the IC50 is more than 200 µM. As for `Nc1ccc(S(=O)(=O)NCCSSCCNS(=O)(=O)c2ccc(N)cc2)cc1`, the EC50 was more than 200 µM and the IC50 worked out at 45.7 µM. As for `Clc1ccc(CNNCc2cccc(Cl)c2)cc1`, the EC50 was more than 200 µM and the IC50 stood at 102 µM. As to `COc1ccc(C2[C@@H](Cl)C(=O)N2c2ccc(OC)cc2)cc1` (stereo partly specified), the outcome was inactive.
